Measurements: the supplement of paper PMC11208160

Test: recombinant barcode read abundance after kanamycin selection (control-corrected) (log10(CPM+1)); higher = more efficient recombination; sequences stand for … in AGTGCAGAGAAAATCGGCCAGTTTTCTCTGCCTGCAGTCCGCATGCCGT…AGATTTATGCAGCGGACTGCCTTTCTCCCAAAGTGATAAACCGGACAGTATCATGGACCGGTTTTCCCGGTAATCCGTATTTGCAAGGTTGGTTTCACT; site = the 11-nt target
In short: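 IS621 bridge RNA target-binding loops were paired with targets in a pooled library tested in E. coli. After co-electroporation with a donor plasmid, cells were plated in two replicates on chloramphenicol/ampicillin LB agar (control) and on chloramphenicol/ampicillin/kanamycin carrying 0.1 mM IPTG. Barcodes at recombinant junctions were counted as counts per million, averaged and control-corrected to give recombination efficiency. Values are log10(CPM+1).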
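Also: IS621 recombinase and bridge RNA in Escherichia coli cells.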

Row | Sequence | recombinant barcode read abundance (log10)
1 | GTACCTTCTTGGGTTCTAACCTGTTGCCT (site GGAGCTTCTAG) | 0.0858
2 | GTACCTTCTTGGGTTCTAACCTGTTGCCT (site GTACCTTCTAG) | 1.08
3 | GTACGATCTTGGGTTCTAACCTGTTGCAA (site GTACGATCTTT) | 0.962
4 | GTACGATCTTGGGTTCTAACCTGTTGCAA (site GTACGGTCTAT) | 0.291
5 | GTACGATCTTGGGTTCTAACCTGTTGCGG (site CCTTCTCCTAT) | 0.0115
6 | GTACGATCTTGGGTTCTAACCTGTTGCGG (site GTACGATCTCC) | 0.753
7 | GTACGGCCTTGGGTTCTAACCTGTTGCCT (site GTACAGCCTAG) | 0.453
8 | GTACGGCCTTGGGTTCTAACCTGTTGCCT (site GTACCGCCTAG) | 0.0984
9 | GTACGGCCTTGGGTTCTAACCTGTTGCCT (site GTACGGCCTAG) | 0.319
10 | GTACGGCCTTGGGTTCTAACCTGTTGCCT (site GTACTGCCTAG) | 0.0887
11 | GTACTCTCTTGGGTTCTAACCTGTTGCCA (site GAACTGTCTTG) | 0.143
12 | GTACTCTCTTGGGTTCTAACCTGTTGCCA (site GTACTCTCTTG) | 1.38
13 | GTAGCACCTTGGGTTCTAACCTGTTGCTT (site GTAGCACCTAA) | 1.72
14 | GTAGCACCTTGGGTTCTAACCTGTTGCTT (site GTATGACCTAA) | 0.323
15 | GTAGGTCCTTGGGTTCTAACCTGTTGCCG (site GTAGGTCCTCG) | 2.48
16 | GTAGGTCCTTGGGTTCTAACCTGTTGCCG (site TACAACACTAC) | 0.0369
17 | GTAGTAACTTGGGTTCTAACCTGTTGCCT (site GTAGTAACTAG) | 2.12
18 | GTAGTAACTTGGGTTCTAACCTGTTGCCT (site GTAGTACCTAG) | 0.104
19 | GTAGTAACTTGGGTTCTAACCTGTTGCCT (site GTAGTAGCTAG) | 0.206
20 | GTAGTAACTTGGGTTCTAACCTGTTGCCT (site GTAGTATCTAG) | 0.0374
21 | GTAGTTCCTTGGGTTCTAACCTGTTGCCT (site GTAGTTCCTAG) | 1.6
22 | GTAGTTCCTTGGGTTCTAACCTGTTGCCT (site GTCGTTCCTAG) | 0.0557

Row | Sequence | recombinant barcode read abundance (log10)
23 | GTATACCCTTGGGTTCTAACCTGTTGCCA (site GTATACCCTAT) | 0.498
24 | GTATACCCTTGGGTTCTAACCTGTTGCCA (site GTATACCCTTG) | 1.27
25 | GTATATACTTGGGTTCTAACCTGTTGCCT (site GTATATACTAG) | 0.902
26 | GTATATACTTGGGTTCTAACCTGTTGCCT (site GTCTATACTAG) | 0.112
27 | GTATATACTTGGGTTCTAACCTGTTGCCT (site GTGTATACTAG) | 0.241
28 | GTATATACTTGGGTTCTAACCTGTTGCCT (site GTTTATACTAG) | 0.00506
29 | GTATCAGCTTGGGTTCTAACCTGTTGCCT (site GTATCAACTAG) | 0.181
30 | GTATCAGCTTGGGTTCTAACCTGTTGCCT (site GTATCACCTAG) | 0.226
31 | GTATCAGCTTGGGTTCTAACCTGTTGCCT (site GTATCAGCTAG) | 1.25
32 | GTATCAGCTTGGGTTCTAACCTGTTGCCT (site GTATCATCTAG) | 0.0176
33 | GTATGAACTTGGGTTCTAACCTGTTGCCT (site GTATGAACTAG) | 1.44
34 | GTATGAACTTGGGTTCTAACCTGTTGCCT (site GTATGACCTAG) | 0.121
35 | GTATGAACTTGGGTTCTAACCTGTTGCCT (site GTATGAGCTAG) | 0.384
36 | GTATGAACTTGGGTTCTAACCTGTTGCCT (site GTATGATCTAG) | 0.119
37 | GTATGACCTTGGGTTCTAACCTGTTGCTT (site GTAGCACCTAA) | 0.0633
38 | GTATGACCTTGGGTTCTAACCTGTTGCTT (site GTATGACCTAA) | 1.54
39 | GTATGAGCTTGGGTTCTAACCTGTTGCTG (site ATTTGAGCTCA) | 0.288
40 | GTATGAGCTTGGGTTCTAACCTGTTGCTG (site GTATGAGCTCA) | 1.51
41 | GTATGATCTTGGGTTCTAACCTGTTGCAT (site GTATGATCTAT) | 0.807
42 | GTATGATCTTGGGTTCTAACCTGTTGCAT (site GTATGTACTAT) | 0.106
43 | GTATGATCTTGGGTTCTAACCTGTTGCCT (site GTATGAACTAG) | 0.026
44 | GTATGATCTTGGGTTCTAACCTGTTGCCT (site GTATGACCTAG) | 0.0755

Row | Sequence | recombinant barcode read abundance (log10)
45 | GTATGATCTTGGGTTCTAACCTGTTGCCT (site GTATGAGCTAG) | 0.742
46 | GTATGATCTTGGGTTCTAACCTGTTGCCT (site GTATGATCTAG) | 1.45
47 | GTATGGACTTGGGTTCTAACCTGTTGCAA (site CATCAAGCTAG) | 0.138
48 | GTATGGACTTGGGTTCTAACCTGTTGCAA (site GTATGGACTTT) | 1.32
49 | GTATGTGCTTGGGTTCTAACCTGTTGCGG (site GTATGAGCTCC) | 0.689
50 | GTATGTGCTTGGGTTCTAACCTGTTGCGG (site GTATGTGCTCC) | 2.84
51 | GTATTTCCTTGGGTTCTAACCTGTTGCTT (site GTATCTCCTAA) | 0.0837
52 | GTATTTCCTTGGGTTCTAACCTGTTGCTT (site GTATTTCCTAA) | 0.782
53 | GTCAAGACTTGGGTTCTAACCTGTTGCCA (site GTCAAGACTCG) | 0.3
54 | GTCAAGACTTGGGTTCTAACCTGTTGCCA (site GTCAAGACTTG) | 1.03
55 | GTCACCTCTTGGGTTCTAACCTGTTGCTA (site GTAACCTCTGA) | 0.217
56 | GTCACCTCTTGGGTTCTAACCTGTTGCTA (site GTCACCTCTTA) | 1.58
57 | GTCACTACTTGGGTTCTAACCTGTTGCAT (site AAGGTACCTCC) | 0.139
58 | GTCACTACTTGGGTTCTAACCTGTTGCAT (site GTCACTACTAT) | 0.381
59 | GTCAGCTCTTGGGTTCTAACCTGTTGCTA (site GACCGCTCTTA) | 0.127
60 | GTCAGCTCTTGGGTTCTAACCTGTTGCTA (site GTCAGCTCTTA) | 1.16
61 | GTCATACCTTGGGTTCTAACCTGTTGCCT (site GTCATACCTAG) | 1.02
62 | GTCATACCTTGGGTTCTAACCTGTTGCCT (site GTCCTACCTAG) | 0.0356
63 | GTCATACCTTGGGTTCTAACCTGTTGCCT (site GTCGTACCTAG) | 0.111
64 | GTCATACCTTGGGTTCTAACCTGTTGCCT (site GTCTTACCTAG) | 0.203
65 | GTCATGCCTTGGGTTCTAACCTGTTGCCT (site GGCCTGCCTAG) | 0.0766
66 | GTCATGCCTTGGGTTCTAACCTGTTGCCT (site GTCATGCCTAG) | 1.1
